Reference: ChEMBL document CHEMBL1128191, “1-(1-[4-[(N-acetyl-4-piperidinyl)oxy]-2-methoxybenzoyl]piperidin-4-yl)-4H-3,1-benzoxazin-2(1H)-one (L-371,257): a new, orally bioavailable, non-peptide oxytocin antagonist” (J Med Chem, 1995)
pKi: −log10 of the molar value.

Columns and labels:
Vasopressin V1a receptor [1] = target: T1, Vasopressin V1a receptor (Rattus norvegicus, UniProt P30560); test: Binding affinity was evaluated by measuring the displacement of [3H]AVP (arginine vasopressin) from specific binding sites in rat liver
T1 sequence (P30560 whole entry): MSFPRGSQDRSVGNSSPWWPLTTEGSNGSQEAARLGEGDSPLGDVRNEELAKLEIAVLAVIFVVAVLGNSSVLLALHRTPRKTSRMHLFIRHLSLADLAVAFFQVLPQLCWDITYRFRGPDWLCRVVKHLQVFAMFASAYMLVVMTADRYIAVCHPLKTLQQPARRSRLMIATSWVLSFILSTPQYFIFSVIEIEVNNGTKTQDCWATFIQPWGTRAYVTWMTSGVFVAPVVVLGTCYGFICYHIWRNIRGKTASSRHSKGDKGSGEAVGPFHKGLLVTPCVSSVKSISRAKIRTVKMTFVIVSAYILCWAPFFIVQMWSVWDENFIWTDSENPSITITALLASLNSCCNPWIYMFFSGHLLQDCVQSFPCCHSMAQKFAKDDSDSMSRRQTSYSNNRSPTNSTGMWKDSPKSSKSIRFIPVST

Vasopressin V2 receptor [2] = target: T2, Vasopressin V2 receptor (Rattus norvegicus, UniProt Q00788); test: Binding affinity was evaluated by measuring the displacement of [3H]-AVP (arginine vasopressin) from specific binding sites in kidney medulla obtained from rats; assay type: tissue-based
T2 sequence (Q00788 whole entry): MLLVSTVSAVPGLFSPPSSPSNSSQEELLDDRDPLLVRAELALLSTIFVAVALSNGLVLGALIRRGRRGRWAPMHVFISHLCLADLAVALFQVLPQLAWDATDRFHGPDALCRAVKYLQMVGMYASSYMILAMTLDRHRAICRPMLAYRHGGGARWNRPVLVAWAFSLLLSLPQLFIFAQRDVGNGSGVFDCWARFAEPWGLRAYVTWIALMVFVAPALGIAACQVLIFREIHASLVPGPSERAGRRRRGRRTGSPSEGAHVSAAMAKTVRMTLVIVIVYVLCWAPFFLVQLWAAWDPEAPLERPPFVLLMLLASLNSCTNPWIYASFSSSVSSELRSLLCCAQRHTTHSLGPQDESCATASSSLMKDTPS

Oxytocin receptor [3] = target: T3, Oxytocin receptor (Homo sapiens, UniProt P30559); test: Binding affinity was evaluated by measuring the displacement of [3H]OT (oxytocin) from specific binding sites in uterine tissue obtained from human
T3 sequence (P30559 whole entry): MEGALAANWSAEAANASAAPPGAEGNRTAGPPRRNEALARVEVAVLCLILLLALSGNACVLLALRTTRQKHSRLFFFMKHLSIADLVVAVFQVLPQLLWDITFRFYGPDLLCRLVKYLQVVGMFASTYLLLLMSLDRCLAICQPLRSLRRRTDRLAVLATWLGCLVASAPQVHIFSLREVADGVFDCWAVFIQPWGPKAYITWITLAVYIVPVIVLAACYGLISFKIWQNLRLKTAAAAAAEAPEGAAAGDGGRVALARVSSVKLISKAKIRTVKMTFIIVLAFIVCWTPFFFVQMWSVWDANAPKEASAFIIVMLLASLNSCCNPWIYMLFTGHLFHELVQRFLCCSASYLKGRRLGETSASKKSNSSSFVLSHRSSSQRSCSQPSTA

Vasopressin V1a receptor [4] = target: T4, Vasopressin V1a receptor (Homo sapiens, UniProt P37288); test: Binding affinity was evaluated by measuring the displacement of [3H]AVP (arginine vasopressin) from specific binding sites in human platelets
T4 sequence (P37288 whole entry): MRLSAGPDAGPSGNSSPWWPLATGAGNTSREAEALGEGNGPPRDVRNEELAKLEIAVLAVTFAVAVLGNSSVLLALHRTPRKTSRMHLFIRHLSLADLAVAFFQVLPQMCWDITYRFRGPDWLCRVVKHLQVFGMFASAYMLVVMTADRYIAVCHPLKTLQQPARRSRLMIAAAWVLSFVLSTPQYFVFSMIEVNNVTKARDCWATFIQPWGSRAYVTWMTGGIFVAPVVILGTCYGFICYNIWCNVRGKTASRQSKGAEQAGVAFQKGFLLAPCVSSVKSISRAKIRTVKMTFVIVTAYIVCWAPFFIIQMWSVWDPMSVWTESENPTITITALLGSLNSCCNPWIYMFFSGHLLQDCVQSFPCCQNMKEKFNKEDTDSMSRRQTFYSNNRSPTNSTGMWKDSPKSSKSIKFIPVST

Oxytocin receptor [5] = target: T3, Oxytocin receptor; test: Binding affinity was evaluated by measuring the displacement of [3H]-OT (oxytocin) from specific binding sites in uterine tissue obtained from human.
Oxytocin receptor [6] = target: T5, Oxytocin receptor (Rattus norvegicus, UniProt P70536); test: Binding affinity was evaluated by measuring the displacement of [3H]-OT (oxytocin) from specific binding sites in uterine tissue obtained from rats
T5 sequence (P70536 whole entry): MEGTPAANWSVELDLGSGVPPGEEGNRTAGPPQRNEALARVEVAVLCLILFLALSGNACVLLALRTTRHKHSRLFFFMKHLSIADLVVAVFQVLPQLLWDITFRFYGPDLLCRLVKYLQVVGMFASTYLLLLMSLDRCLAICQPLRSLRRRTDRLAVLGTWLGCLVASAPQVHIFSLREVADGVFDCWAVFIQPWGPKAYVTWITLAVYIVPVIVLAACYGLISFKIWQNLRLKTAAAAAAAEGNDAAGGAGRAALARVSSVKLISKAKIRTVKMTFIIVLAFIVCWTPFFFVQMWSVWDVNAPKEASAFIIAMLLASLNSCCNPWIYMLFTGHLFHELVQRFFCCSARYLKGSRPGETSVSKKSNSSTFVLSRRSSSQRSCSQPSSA

Vasopressin V2 receptor [7] = target: T2, Vasopressin V2 receptor; test: Binding affinity was evaluated by measuring the displacement of [3H]AVP (arginine vasopressin) from specific binding sites in kidney medulla obtained from rats.; assay type: tissue-based
Vasopressin V1a receptor [8] = target: T1, Vasopressin V1a receptor; test: Binding affinity was evaluated by measuring the displacement of [3H]AVP (arginine vasopressin) from specific binding sites in rat liver.
Vasopressin V1a receptor [9] = target: T4, Vasopressin V1a receptor; test: Binding affinity was evaluated by measuring the displacement of [3H]AVP (arginine vasopressin) from specific binding sites in human platelets.
Vasopressin V2 receptor [10] = target: T6, Vasopressin V2 receptor (Homo sapiens, UniProt P30518); test: Binding affinity was evaluated by measuring the displacement of [3H]AVP (arginine vasopressin) from specific binding sites in kidney medulla obtained from early postmortem human donors.; assay type: tissue-based
T6 sequence (P30518 whole entry): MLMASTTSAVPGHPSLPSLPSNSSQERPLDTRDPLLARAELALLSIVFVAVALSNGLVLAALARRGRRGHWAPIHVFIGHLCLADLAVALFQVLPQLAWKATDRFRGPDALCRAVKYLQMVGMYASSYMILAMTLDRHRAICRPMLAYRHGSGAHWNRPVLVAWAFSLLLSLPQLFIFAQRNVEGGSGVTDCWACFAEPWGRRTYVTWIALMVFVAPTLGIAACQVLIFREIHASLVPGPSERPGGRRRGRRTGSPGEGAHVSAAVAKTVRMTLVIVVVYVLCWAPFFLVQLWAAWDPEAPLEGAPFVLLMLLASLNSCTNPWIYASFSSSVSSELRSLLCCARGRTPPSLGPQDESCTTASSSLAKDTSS

Vasopressin V2 receptor [11] = target: T6, Vasopressin V2 receptor; test: Binding affinity was evaluated by measuring the displacement of [3H]-AVP (arginine vasopressin) from specific binding sites in kidney medulla obtained from early postmortem human donors; assay type: tissue-based

SMILES | pKi (Vasopressin V1a receptor [1]) | pKi (Vasopressin V2 receptor [2]) | pKi (Oxytocin receptor [3]) | pKi (Vasopressin V1a receptor [4]) | pKi (Oxytocin receptor [5]) | pKi (Oxytocin receptor [6]) | pKi (Vasopressin V2 receptor [7]) | pKi (Vasopressin V1a receptor [8]) | pKi (Vasopressin V1a receptor [9]) | pKi (Vasopressin V2 receptor [10]) | pKi (Vasopressin V2 receptor [11])
CC(=O)N1CCCCC1CCOc1ccc(C(=O)N2CCC(N3C(=O)OCc4ccccc43)CC2)cc1 (stereo not given) | 7.82 | 4.96 | 6.82 | 4.66 |  |  |  |  |  |  | 
CC(=O)NCCCOc1ccc(C(=O)N2CCC(N3C(=O)NCc4ccccc43)CC2)cc1 |  |  |  |  | 5.68 | 5.62 | < 5.52 | < 6.00 | 4.21 |  | 
CC(=O)NCCCOc1ccc(C(=O)N2CCC(N3C(=O)CCc4ccccc43)CC2)cc1 |  |  |  |  | 6.77 | 6.64 | < 4.52 | 7.49 | 4.28 | < 4.09 | 
CC(=O)N1CCCC(COc2ccc(C(=O)N3CCC(N4C(=O)OCc5ccccc54)CC3)cc2)C1 (stereo not given) | 7.62 | 4.96 | 6.70 | 4.42 |  | 6.47 |  |  |  |  | 
COc1cc(OC2CCN(C(C)=O)CC2)ccc1C(=O)N1CCC(N2C(=O)OCc3ccccc32)CC1 | 8.43 | < 4.52 | 8.34 | 5.49 |  |  |  |  |  |  | 4.43
CC(=O)N1CCC(Oc2ccc(C(=O)N3CCC(N4C(=O)OCc5ccccc54)CC3)cc2)CC1 | 8.25 | 4.46 | 7.62 | 4.92 |  | 7.16 |  |  |  |  | 
CC(=O)NCCCOc1ccc(C(=O)N2CCC(N3C(=O)OCc4ccccc43)CC2)cc1 |  |  |  |  | 6.89 | 6.70 | 4.46 | 7.51 | 4.44 |  | 
